Assay results taken from ChEMBL document CHEMBL5104116, “Strategies for targeting the P2Y12 receptor in the central nervous system” (Bioorg Med Chem Lett, 2022).
Blank lines part the entries; values can stand above or below the molecule they belong to.

What was measured:
[1] = target: T1, P2Y purinoceptor 12 (Homo sapiens, UniProt Q9H244); test: Inhibition of P2Y12 (unknown origin)
[2] = target: T1, P2Y purinoceptor 12; test: Displacement of [3H]-2MesADP from recombinant human P2Y12 transfected in HEK cell membrane assessed as inhibition constant; type: cell membranes
[3] = target: T1, P2Y purinoceptor 12; test: Displacement of [3H]-2MesADP from human P2Y12 in HEK cell membrane assessed as inhibition constant incubated for 1 hr by scintillation counter method; type: cell membranes
[4] = target: T1, P2Y purinoceptor 12; test: Displacement of [3H]PSB-0413 from P2Y12 in human platelets assessed as dissociation constant; type: cell-based, Platelet
[5] = target: T1, P2Y purinoceptor 12; test: Displacement of [33P]-2MeS-ADP from recombinant human P2Y12 transfected in HEK cell membrane assessed as inhibition constant incubated for 1 hr by competitive binding assay; type: cell membranes
[6] = target: T1, P2Y purinoceptor 12; test: Binding affinity to P2Y12 (unknown origin) assessed as inhibition constant

T1 sequence (Q9H244 whole entry): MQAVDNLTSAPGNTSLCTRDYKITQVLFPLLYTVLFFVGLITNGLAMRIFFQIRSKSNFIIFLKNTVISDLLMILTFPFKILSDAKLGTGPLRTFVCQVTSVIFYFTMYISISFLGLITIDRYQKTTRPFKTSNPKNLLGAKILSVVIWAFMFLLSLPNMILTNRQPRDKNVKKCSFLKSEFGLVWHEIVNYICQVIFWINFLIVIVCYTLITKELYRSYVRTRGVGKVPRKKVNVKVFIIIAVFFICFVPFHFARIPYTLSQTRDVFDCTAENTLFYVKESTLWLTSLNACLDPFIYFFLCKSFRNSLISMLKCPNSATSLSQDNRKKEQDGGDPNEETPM

SMILES: CC(=O)Oc1cc2c(s1)CCN(C(C(=O)C1CC1)c1ccccc1F)C2 (stereo not drawn)
IC50 [1]: 1800 nM

SMILES: CSc1nc(N)c2ncn([C@@H]3O[C@H](COP(=O)(O)OP(=O)(O)O)[C@@H](O)[C@H]3O)c2n1
Ki [2]: 32.1 nM

SMILES: CCCCCOC(=O)N1CCN(C(=O)[C@H](CCC(=O)O)NC(=O)c2cc(N3CCC(COC)CC3)cc(-c3ccccc3)n2)CC1
Ki [6]: 3.5 nM

SMILES: CCCSc1nc(N[C@@H]2C[C@H]2c2ccc(F)c(F)c2)c2nnn([C@@H]3C[C@H](OCCO)[C@@H](O)[C@H]3O)c2n1 [TICAGRELOR]
IC50 [1]: 10 nM

Results, then the molecule that gave them:

Ki [3]: 0.3 nM
SMILES: CCCc1cc2c(N3CCn4c(nnc4C(F)(F)F)C3)nc(OCCF)nc2s1

Kd [4]: 6.5 nM
SMILES: [3H]C([3H])C([3H])([3H])CSc1nc(N)c2ncn([C@@H]3O[C@H](COP(=O)(O)OP(=O)(O)O)[C@@H](O)[C@H]3O)c2n1

Ki [5]: 9 nM
SMILES: NCc1cc2c(N3CCN(C(=O)c4ccc(-c5ccccc5)cc4)CC3)nc(N3CCNC(=O)C3)nc2s1

IC50 [1]: 2400 nM
SMILES: COC(=O)[C@H](c1ccccc1Cl)N1CCc2sccc2C1 [CLOPIDOGREL]
